Laboratory results from patent US20150377888A1, “Methods for Predicting and Preventing Metastasis in Triple Negative Breast Cancers” (INSERM (INSTITUT NATIONAL DE LA SANTÉ ET DE LA RECHERCHE …, priority 2013, published 2015).

Key:
[1] = tested on: EGFR; test: EGFR phosphorylation at Tyr845 / CD95-driven EGFR activation; format: cell-based, human; settings: MDA-MB-468 cells exposed to cl-CD95L
Method: Cells were lysed for 30 min at 4° C. in lysis buffer [25 mM HEPES (pH 7.4), 1% v/v Triton X-100, 150 mM NaCl, and 2 mM EGTA supplemented with a mix of protease inhibitors (Sigma-Aldrich)]. Protein concentration was determined by the bicinchoninic acid method (PIERCE, Rockford, Ill., USA) according to the manufacturer's protocol. Proteins were separated by SDS-PAGE and transferred to a nitrocellulose membrane (GE Healthcare, Buckinghamshire, England). The membrane was blocked for 15 min with TBST (50 mM Tris, 160 mM NaCl, 0.05% v/v Tween 20, pH 7.8) containing 5% w/v dried skimmed milk (TBSTM) and then incubated overnight with primary antibody at 4° C. in TBSTM. The membrane was intensively washed (TBST) and peroxidase-labeled anti-rabbit or anti-mouse (SouthernBiotech, Birmingham, Ala., US) was added for 45 min. The proteins were visualized with the enhanced chemiluminescence substrate kit (ECL, GE Healthcare).

[2] = tested on: NADPHox; test: Flow cytometry analysis of intracellular ROS (H2FDA); format: cell-based, human
Method: Cells were pre-incubated for 30 min at 37° C. with 3 μM of H2FDA resuspended in PBS. The cells were then pre-incubated for an additional 30 min with or without ROS inhibitors before stimulation with 100 ng/ml cl-CD95L for the indicated times. Cells were then washed and analyzed by FACScalibur (BD Bioscience).

[3] = target: T1, CD95 (Homo sapiens, UniProt P25445); test: MISC immunoprecipitation; format: cell-based; settings: MDA-MB-231 and MDA-MB-468 cells stimulated with cl-CD95L
T1 construct: endogenous in cells; host or cells: MDA-MB-231 and MDA-MB-468 human TNBC breast cancer cells
T1 sequence (P25445 26-335): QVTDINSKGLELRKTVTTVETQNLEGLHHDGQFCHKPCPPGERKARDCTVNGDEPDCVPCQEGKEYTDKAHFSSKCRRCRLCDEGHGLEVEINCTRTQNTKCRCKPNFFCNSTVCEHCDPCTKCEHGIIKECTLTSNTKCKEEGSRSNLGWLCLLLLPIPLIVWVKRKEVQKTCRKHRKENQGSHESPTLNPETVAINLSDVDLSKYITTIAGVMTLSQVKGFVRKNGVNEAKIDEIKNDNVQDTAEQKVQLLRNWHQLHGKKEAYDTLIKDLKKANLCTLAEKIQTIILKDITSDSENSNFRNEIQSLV
T1 sequence (P48023 130-281 partner limits assumed): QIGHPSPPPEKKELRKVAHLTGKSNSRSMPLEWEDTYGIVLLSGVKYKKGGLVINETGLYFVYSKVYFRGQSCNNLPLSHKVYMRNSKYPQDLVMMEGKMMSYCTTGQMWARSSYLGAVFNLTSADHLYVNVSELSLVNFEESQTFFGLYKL
Method: Breast cancer cells (20×10^6 cells per condition) were incubated with 100 ng/ml cl-CD95L for the indicated times. The cells were then lysed, 1 μg of Apo1-3 was added to the cell lysate and CD95 was immunoprecipitated by the addition of protein A-sepharose beads (Sigma-Aldrich). For the immunoprecipitation of EGF-R, 1 μg mouse anti-EGF-R (Santa Cruz Biotechnology, CA, USA) was added to the cell lysate and EGF-R was immunoprecipitated with protein A-sepharose beads (Sigma-Aldrich). After extensive washing, the immune complex was resolved by SDS-PAGE.

[4] = tested on: PI3K; test: Immunoblot of Akt phosphorylation at Ser473 (hallmark of PI3K activation) in cells exposed to cl-CD95L; format: cell-based, human; settings: all tested TNBC cell lines
Method: Cells were lysed for 30 min at 4° C. in lysis buffer [25 mM HEPES (pH 7.4), 1% v/v Triton X-100, 150 mM NaCl, and 2 mM EGTA supplemented with a mix of protease inhibitors (Sigma-Aldrich)]. Protein concentration was determined by the bicinchoninic acid method (PIERCE, Rockford, Ill., USA) according to the manufacturer's protocol. Proteins were separated by SDS-PAGE and transferred to a nitrocellulose membrane (GE Healthcare, Buckinghamshire, England). […] The proteins were visualized with the enhanced chemiluminescence substrate kit (ECL, GE Healthcare).

[5] = tested on: TNBC breast cancer cell lines (Hs578T, MDA-MB-231 and MDA-MB-468); test: In vitro motility assay (Boyden chambers); format: cell-based, human
Method: Boyden chambers (Millipore, Molsheim, France) containing 8 μm pore membranes were cultured in 24-well plates. After hydration of the membranes, 10^5 cells were added to the top chamber in low serum (1%)-containing medium. […] Cells were cultured for 24 h at 37° C. in a 5% CO2 humidified incubator. To quantify invasion, cells were fixed with methanol and stained with Giemsa. Stained cells were then removed from the top side of the membrane using a cotton-tipped swab and five representative pictures for each insert were taken of the invading cells from the reverse side. For each experiment, cells were lysed and absorbance at 560 nm was measured.

cl-CD95L: soluble ligand produced by metalloprotease cleavage of the transmembrane CD95L (FasL); produced in transfected 293 cells
phosphorylation of EGFR at Tyr845 [1]: resulted in phosphorylation of EGFR at Tyr845 | time of peak of EGFR Tyr845 phosphorylation [1]: 2 min | time of stimulation after which EGFR Tyr845 phosphorylation disappeared [1]: 10 min | intracellular ROS in breast cancer cells exposed to cl-CD95L [2]: rapid increase in intracellular ROS | MISC formation [3]: induces MISC formation | phosphorylation of Akt at Ser473 induced by CD95L [4]: induced rapid phosphorylation of Akt | motility of TNBC cells stimulated with cl-CD95L ([5]; Hs578T, MDA-MB-231 and MDA-MB-468, Boyden chambers): dramatic increase in motility | migration of TNBC cells, titration of cl-CD95L ([5]; cl-CD95L at 100 pg/ml): induced migration of TNBC cells
